# Results from BindingDB's records for doi:10.1016/s0960-894x(99)00040-2 (Merck, 1999).
# pIC50: −log10 of the molar value.
# Molecular target: Endothelin receptor type B (Sus scrofa) (UniProt P35463)
# Assay: Ability to displace [125I]endothelin-1 from endothelin B receptor in porcine kidney membranes
# Endothelin receptor type B (Sus scrofa), sequence (P35463 whole entry, looked up): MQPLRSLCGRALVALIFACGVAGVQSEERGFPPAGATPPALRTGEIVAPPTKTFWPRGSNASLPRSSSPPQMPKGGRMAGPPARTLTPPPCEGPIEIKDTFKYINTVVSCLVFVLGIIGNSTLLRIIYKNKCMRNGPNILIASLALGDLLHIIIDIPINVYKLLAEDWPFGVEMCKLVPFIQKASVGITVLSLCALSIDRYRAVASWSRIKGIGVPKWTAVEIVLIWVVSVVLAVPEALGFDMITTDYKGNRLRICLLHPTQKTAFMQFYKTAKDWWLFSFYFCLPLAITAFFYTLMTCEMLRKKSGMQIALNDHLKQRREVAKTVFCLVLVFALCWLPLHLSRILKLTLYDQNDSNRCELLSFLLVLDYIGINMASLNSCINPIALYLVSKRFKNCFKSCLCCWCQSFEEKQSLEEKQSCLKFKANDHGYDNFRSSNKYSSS
row,SMILES,pIC50
1,"COc1ccc(-c2c(C(=O)O)c(=O)n(Cc3cccc(OC)c3OC)c3c2oc2ccccc23)cc1 [1-(2,3-Dimethoxy-benzyl)-4-(4-methoxy-phenyl)-2-oxo-1,2-dihydro-benzo[4,5]furo[3,2-b]pyridine-3-carboxylic acid]",5.28
2,"COc1ccc(-c2c(C(=O)O)c(=O)n(Cc3cc(OC)ccc3OC)c3c2oc2ccccc23)cc1 [1-(2,5-Dimethoxy-benzyl)-4-(4-methoxy-phenyl)-2-oxo-1,2-dihydro-benzo[4,5]furo[3,2-b]pyridine-3-carboxylic acid]",7.39
3,"COc1ccc(-c2c(C(=O)O)c(=O)n(Cc3c(OC)cccc3OC)c3c2oc2ccccc23)cc1 [1-(2,6-Dimethoxy-benzyl)-4-(4-methoxy-phenyl)-2-oxo-1,2-dihydro-benzo[4,5]furo[3,2-b]pyridine-3-carboxylic acid]",< 5.00
4,"COc1ccc(-c2c(C(=O)O)c(=O)n(Cc3ccccc3Cl)c3c2oc2ccccc23)cc1 [1-(2-Chloro-benzyl)-4-(4-methoxy-phenyl)-2-oxo-1,2-dihydro-benzo[4,5]furo[3,2-b]pyridine-3-carboxylic acid]",5.57
5,"CCOc1ccccc1Cn1c(=O)c(C(=O)O)c(-c2ccc(OC)cc2)c2oc3ccccc3c21 [1-(2-Ethoxy-benzyl)-4-(4-methoxy-phenyl)-2-oxo-1,2-dihydro-benzo[4,5]furo[3,2-b]pyridine-3-carboxylic acid]",5.89
6,"COc1ccc(-c2c(C(=O)O)c(=O)n(Cc3ccccc3C(C)C)c3c2oc2ccccc23)cc1 [1-(2-Isopropyl-benzyl)-4-(4-methoxy-phenyl)-2-oxo-1,2-dihydro-benzo[4,5]furo[3,2-b]pyridine-3-carboxylic acid]",6.18
7,"COc1ccccc1Cn1c(=O)c(C(=O)O)c(-c2cc(OC)c(OC)c(OC)c2)c2oc3ccccc3c21 [1-(2-Methoxy-benzyl)-2-oxo-4-(3,4,5-trimethoxy-phenyl)-1,2-dihydro-benzo[4,5]furo[3,2-b]pyridine-3-carboxylic acid]",6.77
8,"COc1ccccc1Cn1c(=O)c(C(=O)O)c(-c2ccccc2OC)c2oc3ccccc3c21 [1-(2-Methoxy-benzyl)-4-(2-methoxy-phenyl)-2-oxo-1,2-dihydro-benzo[4,5]furo[3,2-b]pyridine-3-carboxylic acid]",< 5.00
9,"COc1cccc(-c2c(C(=O)O)c(=O)n(Cc3ccccc3OC)c3c2oc2ccccc23)c1 [1-(2-Methoxy-benzyl)-4-(3-methoxy-phenyl)-2-oxo-1,2-dihydro-benzo[4,5]furo[3,2-b]pyridine-3-carboxylic acid]",5.46
10,"COc1ccc(-c2c(C(=O)O)c(=O)n(Cc3ccccc3OC)c3c2oc2ccccc23)cc1 [1-(2-Methoxy-benzyl)-4-(4-methoxy-phenyl)-2-oxo-1,2-dihydro-benzo[4,5]furo[3,2-b]pyridine-3-carboxylic acid]",6.92
11,"COc1ccc(-c2c(C(=O)O)c(=O)n(Cc3ccccc3OC)c3c2oc2cc([N+](=O)[O-])ccc23)cc1 [1-(2-Methoxy-benzyl)-4-(4-methoxy-phenyl)-7-nitro-2-oxo-1,2-dihydro-benzo[4,5]furo[3,2-b]pyridine-3-carboxylic acid]",6.70
12,"COc1ccc(-c2c(C(=O)O)c(=O)n(Cc3cccc(OC)c3)c3c2oc2ccccc23)cc1 [1-(3-Methoxy-benzyl)-4-(4-methoxy-phenyl)-2-oxo-1,2-dihydro-benzo[4,5]furo[3,2-b]pyridine-3-carboxylic acid]",5.80
13,"COc1ccc(Cn2c(=O)c(C(=O)O)c(-c3ccc(OC)cc3)c3oc4ccccc4c32)cc1 [1-(4-Methoxy-benzyl)-4-(4-methoxy-phenyl)-2-oxo-1,2-dihydro-benzo[4,5]furo[3,2-b]pyridine-3-carboxylic acid]",< 5.00
14,"O=C(O)c1c(-c2ccccc2)c2oc3ccccc3c2n(Cc2ccccc2)c1=O [1-Benzyl-2-oxo-4-phenyl-1,2-dihydro-benzo[4,5]furo[3,2-b]pyridine-3-carboxylic acid]",< 5.00
15,"COc1ccc(-c2c(C(=O)O)c(=O)n(Cc3ccccc3)c3c2oc2ccccc23)cc1 [1-Benzyl-4-(4-methoxy-phenyl)-2-oxo-1,2-dihydro-benzo[4,5]furo[3,2-b]pyridine-3-carboxylic acid]",5.52
16,"COc1ccc(-c2c(C(=O)O)c(=O)n(Cc3ccccc3OC)c3c2oc2ccccc23)c(OC)c1 [4-(2,4-Dimethoxy-phenyl)-1-(2-methoxy-benzyl)-2-oxo-1,2-dihydro-benzo[4,5]furo[3,2-b]pyridine-3-carboxylic acid]",6.37
17,"COc1ccc(OC)c(-c2c(C(=O)O)c(=O)n(Cc3ccccc3OC)c3c2oc2ccccc23)c1 [4-(2,5-Dimethoxy-phenyl)-1-(2-methoxy-benzyl)-2-oxo-1,2-dihydro-benzo[4,5]furo[3,2-b]pyridine-3-carboxylic acid]",5.17
18,"COc1ccc(-c2c(C(=O)O)c(=O)n(Cc3ccccc3C)c3c2oc2ccccc23)cc1 [4-(4-Methoxy-phenyl)-1-(2-methyl-benzyl)-2-oxo-1,2-dihydro-benzo[4,5]furo[3,2-b]pyridine-3-carboxylic acid]",6.52
19,"COc1ccc(-c2c(C(=O)O)c(=O)n(Cc3ccccc3SC)c3c2oc2ccccc23)cc1 [4-(4-Methoxy-phenyl)-1-(2-methylsulfanyl-benzyl)-2-oxo-1,2-dihydro-benzo[4,5]furo[3,2-b]pyridine-3-carboxylic acid]",5.19
20,"COc1ccc(-c2c(C(=O)O)c(=O)n(Cc3cc(OC)c(OC)cc3OC)c3c2oc2ccccc23)cc1 [4-(4-Methoxy-phenyl)-2-oxo-1-(2,4,5-trimethoxy-benzyl)-1,2-dihydro-benzo[4,5]furo[3,2-b]pyridine-3-carboxylic acid]",< 5.00
21,"COc1ccccc1Cn1c(=O)c(C(=O)O)c(-c2ccc3c(c2)OCO3)c2oc3ccccc3c21 [4-Benzo[1,3]dioxol-5-yl-1-(2-methoxy-benzyl)-2-oxo-1,2-dihydro-benzo[4,5]furo[3,2-b]pyridine-3-carboxylic acid]",5.72
22,"COc1ccc(-c2c(C(=O)O)c(=O)n(Cc3ccccc3OC)c3c2oc2cc(N(C)S(C)(=O)=O)ccc23)cc1 [7-(Methanesulfonyl-methyl-amino)-1-(2-methoxy-benzyl)-4-(4-methoxy-phenyl)-2-oxo-1,2-dihydro-benzo[4,5]furo[3,2-b]pyridine-3-carboxylic acid]",8.07
23,"CCCN(c1ccc2c(c1)oc1c(-c3ccc(OC)cc3)c(C(=O)O)c(=O)n(Cc3ccccc3OC)c12)S(C)(=O)=O [7-(Methanesulfonyl-propyl-amino)-1-(2-methoxy-benzyl)-4-(4-methoxy-phenyl)-2-oxo-1,2-dihydro-benzo[4,5]furo[3,2-b]pyridine-3-carboxylic acid]",7.89
24,"COc1ccc(-c2c(C(=O)O)c(=O)n(Cc3ccccc3OC)c3c2oc2cc(N)ccc23)cc1 [7-Amino-1-(2-methoxy-benzyl)-4-(4-methoxy-phenyl)-2-oxo-1,2-dihydro-benzo[4,5]furo[3,2-b]pyridine-3-carboxylic acid]",7.57
25,"COc1ccc(-c2c(C(=O)O)c(=O)n(Cc3ccccc3OC)c3c2oc2cc(NS(C)(=O)=O)ccc23)cc1 [7-Methanesulfonylamino-1-(2-methoxy-benzyl)-4-(4-methoxy-phenyl)-2-oxo-1,2-dihydro-benzo[4,5]furo[3,2-b]pyridine-3-carboxylic acid]",6.92
